ChEMBL document CHEMBL1130226, “2,4-Diaminothieno[2,3-d]pyrimidine lipophilic antifolates as inhibitors of Pneumocystis carinii and Toxoplasma gondii dihydrofolate reductase” (J Med Chem, 1997)

Assays:
Dihydrofolate reductase [1] = biological target: T1, Dihydrofolate reductase (Rattus norvegicus, UniProt Q920D2)
T1 sequence (Q920D2 whole entry): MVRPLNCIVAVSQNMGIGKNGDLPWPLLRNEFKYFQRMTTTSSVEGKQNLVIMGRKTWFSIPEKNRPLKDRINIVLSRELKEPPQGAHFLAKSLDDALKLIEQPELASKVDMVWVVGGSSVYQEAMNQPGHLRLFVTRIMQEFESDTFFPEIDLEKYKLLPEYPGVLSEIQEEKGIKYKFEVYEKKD
Description: Inhibition of rat liver Dihydrofolate Reductase

[2] = Selectivity ratio of IC50 (rat liver)/IC50 (Pneumocystis carinii)
Dihydrofolate reductase [3] = biological target: T2, Dihydrofolate reductase (Pneumocystis carinii, UniProt P16184)
T2 sequence (P16184 whole entry): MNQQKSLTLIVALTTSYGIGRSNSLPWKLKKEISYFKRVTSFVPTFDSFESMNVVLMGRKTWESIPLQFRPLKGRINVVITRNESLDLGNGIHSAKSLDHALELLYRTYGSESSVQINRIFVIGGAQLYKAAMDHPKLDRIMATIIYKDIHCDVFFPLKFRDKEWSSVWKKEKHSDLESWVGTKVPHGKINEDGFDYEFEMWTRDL
Description: Inhibition of Pneumocystis carinii Dihydrofolate Reductase

[4] = biological target: T3, Bifunctional dihydrofolate reductase-thymidylate synthase (Toxoplasma gondii, UniProt Q07422)
T3 sequence (Q07422 whole entry): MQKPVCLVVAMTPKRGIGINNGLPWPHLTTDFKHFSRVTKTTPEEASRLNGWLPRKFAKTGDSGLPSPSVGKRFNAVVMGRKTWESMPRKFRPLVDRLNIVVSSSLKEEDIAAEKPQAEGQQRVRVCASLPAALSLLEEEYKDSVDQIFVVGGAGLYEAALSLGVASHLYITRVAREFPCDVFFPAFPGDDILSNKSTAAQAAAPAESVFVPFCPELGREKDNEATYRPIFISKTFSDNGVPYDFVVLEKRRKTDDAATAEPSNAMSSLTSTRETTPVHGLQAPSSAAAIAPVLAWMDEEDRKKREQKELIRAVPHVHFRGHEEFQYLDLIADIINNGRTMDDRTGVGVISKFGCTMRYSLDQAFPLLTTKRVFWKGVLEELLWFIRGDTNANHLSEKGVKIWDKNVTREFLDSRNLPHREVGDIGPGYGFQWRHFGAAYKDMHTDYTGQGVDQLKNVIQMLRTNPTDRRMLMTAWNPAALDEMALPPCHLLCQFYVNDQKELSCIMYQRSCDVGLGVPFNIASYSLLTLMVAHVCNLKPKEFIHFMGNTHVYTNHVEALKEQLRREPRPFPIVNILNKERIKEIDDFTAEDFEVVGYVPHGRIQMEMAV
Description: Inhibition of Toxoplasma gondii Dihydrofolate Reductase

[5] = Selectivity ratio of IC50 (rat liver)/IC50 (Toxoplasma gondii

Row | SMILES | IC50 (Dihydrofolate reductase [1]) | Selectivity ratio [2] | IC50 (Dihydrofolate reductase [3]) | IC50 [4] | Selectivity ratio [5]
1 | COc1cc(NCc2c(Br)sc3nc(N)nc(N)c23)cc(OC)c1OC | 17 µM | 1.2 | 13 µM | 34 µM | 
2 | Nc1nc(N)c2c(CNc3cc(Cl)c(-n4cccc4)c(Cl)c3)c(Br)sc2n1 | 10 µM | 1.4 | 7.5 µM | 26 µM | 0.39
3 | COc1cc(N(C)Cc2c(Br)sc3nc(N)nc(N)c23)cc(OC)c1OC | 28 µM | 0.88 | 31 µM | 127 µM | 
4 | COc1ccc(OC)c(N(C)Cc2c(Br)sc3nc(N)nc(N)c23)c1 | > 10 µM |  | > 10 µM | > 10 µM | 
5 | COc1ccc(OC)c(NCc2c(Br)sc3nc(N)nc(N)c23)c1 | 33 µM |  | > 100 µM | > 100 µM | 
6 | COc1cc(Cc2cnc(N)nc2N)cc(OC)c1Br [BRODIMOPRIM] | 0.015 µM | 0.048 | 0.031 µM | 0.017 µM | 0.088
